Data on 1 sequence can be found in paper PMC12351953, “SCAN-ACT: adoptive T cell therapy target discovery through single-cell transcriptomics” (Genome Medicine, 2025).

This test has as its target HLA-A*02:01 (Homo sapiens, UniProt P04439, D140Y/D185E/D98H/E176V/E277Q/G131W/G231S/I119V/I121R/I166T/I218V/L300P/L318F/N151K/N90K/P208A/P217A/Q86G/Q94H/R138H/R169H/T345S). Kind of test: IMMUNE on-yeast peptide competition against biotinylated indicator peptide. In kind it is binding. The note with it: yeast-displayed HLA, 0.5 µM biotinylated indicator peptide (Bio-KLT), 20-fold more concentrated test peptide, overnight to equilibrium, flow cytometry. The text has this:
To construct plasmids driving the expression of non-covalent HLA-I heterodimers, the commercially available backbone vector pRS315 was modified. Briefly, the entire expression cassette containing genes encoding the Aga2 leader sequence, the ectodomain of a particular HLA-I heavy chain allele (A*02:01 or A*11:01 or B*35:01 or C*12:03), the Aga2p yeast native protein subunit, an HA epitope tag, and the MFα terminator was cloned to the downstream of the GAL10 promoter in pRS315, so that the expressed HLA-I heavy chain ectodomain was fused to the N-terminus of Aga2p for yeast surface display. […]
A sufficient amount of galactose-induced yeast cells was collected by centrifugation and labeled by primary antibodies in PBS + 0.5% bovine serum albumin (BSA) for 1 h on ice. […] FL1 and FL4 fluorescence channels were selected for Alexa Fluor 488 and Alexa Fluor 647, respectively, according to the fluorophore selected at the secondary labeling step as mentioned above. […]
To design indicator peptides appropriate for evaluation of HLA peptide binding on the surface of yeast cells and for downstream competitive assay development, the reported epitope repertoire for each aforementioned HLA allele from the Immune Epitope Database was carefully analyzed. […]

On to “RLHRIIPKI [test peptide from SSX1 (printed SSXI), pMHC target identified through PS-TRACT]”, for which the “binding to A*02:01 (IMMUNE)” value is “bound”.
